How the values were obtained:
[1] = system: AdV3; experiment: Anti-AdV activity assay (IFA of hexon), secondary screen, AdV3; format: cell-based, Human adenoviruses type 3; conditions: for Selective Index AdV3: CC50/EC50, Vero cells; for EC50: Vero cells, 48 h, IFA of hexon, 0.02 to 5 μM
[2] = system: AdV5; experiment: Anti-AdV activity assay (IFA of hexon), secondary screen, AdV5; format: cell-based, Human adenoviruses type 5; conditions: for Selective Index AdV5: CC50/EC50, Vero cells; for EC50: Vero cells, 48 h, IFA of hexon, 0.02 to 5 μM
[3] = in vitro; conditions: African green monkey

| Compound | Selective Index AdV3 [1] | EC50 [1] [nM] | Selective Index AdV5 [2] | EC50 [2] [nM] | CC50 at 48 h [3] [nM] | CC50 at 48 h ([3]; Vero cells) [nM] |
| --- | --- | --- | --- | --- | --- | --- |
| CO[C@H]1/C=C\C=C(/C)C(=O)NC2=CC(=O)C(NCCN(C)C)=C(C[C@@H](C)C[C@H](OC)[C@H](O)[C@@H](C)/C=C(\C)[C@@H]1OC(N)=O)C2=O [17-DMAG] | >23.20 | 220 | >11.58 | 430 | > 5000 | – |
| CC(C)c1cc(C(=O)N2Cc3ccc(CN4CCN(C)CC4)cc3C2)c(O)cc1O [AT13387] | >61.84 | 80 | >27.13 | 180 | – | > 5000 |
| CCNC(=O)c1noc(-c2cc(C(C)C)c(O)cc2O)c1-c1ccc(CN2CCOCC2)cc1 [AUY922] | >28.56 | 180 | >22.11 | 230 | > 5000 | – |
| CNC(=O)c1cccc(-c2ccc3c(N4CCOC[C@@H]4C)nc(N4CCOC[C@@H]4C)nc3n2)c1 [AZD2014] | 171.31 | 20 | 56.82 | 70 | 4050 | – |
| COc1ccc(-c2ccc3c(N4CCOC[C@@H]4C)nc(N4CCOC[C@@H]4C)nc3n2)cc1CO [AZD8055] | >44.72 | 110 | >31.87 | 160 | > 5000 | – |
| CNC(=O)CN1CCC(Oc2cc3c(Nc4cccc(Cl)c4F)ncnc3cc2OC)CC1 [AZD8931] | >96.15 | 50 | – | > 5000 | > 5000 | – |
| S=C(NCc1ccc2c(c1)OCO2)N1CCN(c2ncnc3c2oc2ccccc23)CC1 [Amuvatinib] | 2.10 | 3970 | 4.64 | 1800 | – | > 5000 |
| N#CC1(c2ccc(NC(=O)c3cccnc3NCc3ccncc3)cc2)CCCC1 [Apatinib] | >15.41 | 320 | >1.39 | 3600 | > 5000 | – |
| COc1c(C)cnc(Cn2cnc3c(Cl)nc(N)nc32)c1C [BIIB021] | >48.73 | 100 | >21.2 | 240 | > 5000 | – |
| CCCCOc1c(C(=O)c2c(F)cc(C)cc2F)c[nH]c2nncc1-2 [BMS-265246] | >7.84 | 640 | >8.35 | 600 | – | > 5000 |
| CO[C@H]1CC[C@H](N2C(=O)CNc3ncc(-c4ccc(C(C)(C)O)nc4)nc32)CC1 [CC-223] | >4.50 | 1110 | >3.62 | 1380 | – | > 5000 |
| NC(=O)CCCSc1nc(N)nc(-c2c(Cl)cc3c4c(cccc24)COC3)n1 [CH5138303] | – | 90 | – | 650 | – | – |
| COc1cc2ncnc(Nc3ccc(F)c(Cl)c3)c2cc1NC(=O)/C=C/CN1CCCCC1 [Dacomitinib] | 6.31 | 770 | 2.97 | 1640 | – | 4880 |
| Cc1ccc(-n2nc(C(C)(C)C)cc2NC(=O)Nc2ccc(OCCN3CCOCC3)c3ccccc23)cc1 [Doramapimod] | >14.24 | 350 | – | > 5000 | > 5000 | – |
| CCNC(=O)Nc1ccc(-c2nc3c(c(N4CCOC[C@@H]4C)n2)CCN(C2COC2)C3)cc1 [GDC-0349] | >3.63 | 1380 | >1.91 | 2620 | – | > 5000 |
| CN1CCC(NC(=O)c2cc(-c3c(O)cc(O)cc3Oc3ccc([N+](=O)[O-])cc3)on2)CC1 [NMS-E973] | – | 920 | – | 4940 | – | – |
| Nc1ccc(-c2ccc3ncc4ccc(=O)n(-c5cccc(C(F)(F)F)c5)c4c3c2)cn1 [Torin 2] | – | 310 | – | 90 | – | – |
| AZD4547 | 8.78 | – | – | – | – | – |

— paper PMC9144521 (Viruses, 2022)
